Laboratory results published in patent publication US9815846B2 (Merck Sharp & Dohme Corp., priority 2014, dated 2017).

target: human TrkA receptor (Homo sapiens (Human), UniProt P04629); assay: DiscoverX PathHunter TrkA functional assay (NGF-stimulated U2OS cells); format: cell-based; conditions: U2OS cells expressing human TrkA-PK, Shc1-EA and p75NTR; compound 1 h, then NGF at ~80% of maximal response for 3 h; luminescence
Sequence (P04629 33-796): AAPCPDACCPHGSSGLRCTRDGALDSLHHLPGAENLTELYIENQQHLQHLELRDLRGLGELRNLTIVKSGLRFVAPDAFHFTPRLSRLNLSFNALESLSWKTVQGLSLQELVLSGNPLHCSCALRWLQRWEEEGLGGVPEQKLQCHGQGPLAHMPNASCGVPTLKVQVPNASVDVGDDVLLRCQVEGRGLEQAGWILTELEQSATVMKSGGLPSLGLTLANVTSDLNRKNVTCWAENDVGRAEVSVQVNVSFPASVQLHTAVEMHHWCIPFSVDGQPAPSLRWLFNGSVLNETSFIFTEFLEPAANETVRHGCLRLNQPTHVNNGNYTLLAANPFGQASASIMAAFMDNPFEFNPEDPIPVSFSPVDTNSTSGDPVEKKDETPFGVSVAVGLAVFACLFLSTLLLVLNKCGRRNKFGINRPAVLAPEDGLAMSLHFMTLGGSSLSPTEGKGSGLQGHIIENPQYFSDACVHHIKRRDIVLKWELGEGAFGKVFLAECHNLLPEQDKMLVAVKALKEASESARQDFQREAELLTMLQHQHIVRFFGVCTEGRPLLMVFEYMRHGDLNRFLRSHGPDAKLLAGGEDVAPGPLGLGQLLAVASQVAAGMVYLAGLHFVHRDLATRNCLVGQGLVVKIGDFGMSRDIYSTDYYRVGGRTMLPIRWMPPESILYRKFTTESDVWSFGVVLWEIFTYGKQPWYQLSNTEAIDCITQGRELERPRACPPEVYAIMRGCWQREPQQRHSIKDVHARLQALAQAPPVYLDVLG

Row | Structure (SMILES) | IC50 [nM]
1 | Cc1nc(Cl)c(NC(=O)c2ccc(C(F)(F)F)c(-c3ccn(C)n3)c2)c(-c2ccccc2)n1 [Example 4, N-(4-Chloro-2-methyl-6-phenylpyrimidin-5-yl)-3-(1-methyl-1H-pyrazol-3-yl)-4-(trifluoromethyl)benzamide] | 160
2 | CNS(=O)(=O)Cc1ccc(NC(=O)c2cc(-c3ccn(C)n3)c(C(F)(F)F)cc2F)c(-c2ccccc2)n1 [Example 200, 2-fluoro-5-(1-methyl-1H-pyrazol-3-yl)-N-(6-((N-methylsulfamoyl)methyl)-2-phenylpyridin-3-yl)-4-(trifluoromethyl)benzamide] | 4.4
3 | Cc1ncc(NC(=O)c2ccc(C(F)(F)F)c(-c3ccn(C)n3)c2)c(-c2ccccc2)n1 [Example 15, N-(2-methyl-4-phenylpyrimidin-5-yl)-3-(1-methyl-1H-pyrazol-3-yl)-4-(trifluoromethyl)benzamide] | 3
4 | Cn1ccc(-c2cc(C(=O)Nc3cc4c(nc3-c3ccccc3)CCNC4)c(F)cc2C(F)(F)F)n1 [Example 145, 2-fluoro-5-(1-methyl-1H-pyrazol-3-yl)-N-(2-phenyl-5,6,7,8-tetrahydro-1,6-naphthyridin-3-yl)-4-(trifluoromethyl)benzamide] | 2.9
5 | Cc1ncc(NC(=O)c2cc(-c3ccn(C)n3)c(C(F)(F)F)cc2F)c(-c2ccccc2CO)n1 [Example 136, 2-Fluoro-N-(4-(2-(hydroxymethyl)phenyl)-2-methylpyrimidin-5-yl)-5-(1-methyl-1H-pyrazol-3-yl)-4-(trifluoromethyl)benzamide] | 4.4
6 | Cn1ccc(-c2cc(C(=O)Nc3ccc(C4CNC(=O)C4)nc3-c3ccccc3)c(F)cc2C(F)(F)F)n1 (single isomer, unassigned) [Example 198, (R or S)-2-Fluoro-5-(1-methyl-1H-pyrazol-3-yl)-N-(6-(5-oxopyrrolidin-3-yl)-2-phenylpyridin-3-yl)-4-(trifluoromethyl)benzamide] | 0.57
7 | Cn1ccc(-c2cc(C(=O)Nc3cnc4c(c3-c3ccccc3)CCN(C(=O)CO)C4)ccc2C(F)(F)F)n1 [Example 143, N-(7-(2-Hydroxyacetyl)-4-phenyl-5,6,7,8-tetrahydro-1,7-naphthyridin-3-yl)-3-(1-methyl-1H-pyrazol-3-yl)-4-(trifluoromethyl)benzamide] | 19
8 | O=C(Nc1cc(-c2ccc(CO)cn2)cnc1-c1ccccc1)c1cc(-c2ncccn2)c(C(F)(F)F)cc1F [Example 168, 2-fluoro-N-(5-(hydroxymethyl)-6′-phenyl-[2,3′-bipyridin]-5′-yl)-5-(pyrimidin-2-yl)-4-(trifluoromethyl)benzamide] | 0.68
9 | Cn1ccc(-c2cc(C(=O)Nc3cnc(NCCO)nc3-c3ccccc3)ccc2C(F)(F)F)n1 [Example 210, N-(2-((2-hydroxyethyl)amino)-4-phenylpyrimidin-5-yl)-3-(1-methyl-1H-pyrazol-3-yl)-4-(trifluoromethyl)benzamide] | 2.5
10 | Cc1ncc(NC(=O)c2cc(-c3ccn(C)n3)c(C(F)(F)F)cc2Cl)c(-c2ccccc2)n1 [Example 23, 2-chloro-N-(2-methyl-4-phenylpyrimidin-5-yl)-5-(1-methyl-1H-pyrazol-3-yl)-4-(trifluoromethyl)benzamide] | 1.1
11 | CNCc1ncc(NC(=O)c2ccc(C(F)(F)F)c(-c3ccn(C)n3)c2)c(-c2ccccc2)n1 [Example 45] | 16
12 | Cn1ccc(-c2cc(C(=O)Nc3cc4c(nc3-c3ccccc3)CCN(CC(N)=O)C4)ccc2C(F)(F)F)n1 [Example 140, N-(6-(2-Amino-2-oxoethyl)-2-phenyl-5,6,7,8-tetrahydro-1,6-naphthyridin-3-yl)-3-(1-methyl-1H-pyrazol-3-yl)-4-(trifluoromethyl)benzamide] | 1.8
13 | CNC(=O)c1ccc(-c2cnc(-c3ccccc3)c(NC(=O)c3cc(-c4ncccn4)c(C(F)(F)F)cc3F)c2)nc1 [Example 174, 5′-(2-fluoro-5-(pyrimidin-2-yl)-4-(trifluoromethyl)benzamido)-N-methyl-6′-phenyl-[2,3′-bipyridine]-5-carboxamide] | 4.8
14 | Cc1cc(-c2ccccc2NC(=O)c2cc(-n3nc(C)cc3C)ccc2Cl)on1 [Example 11, 2-chloro-5-(3,5-dimethyl-1H-pyrazol-1-yl)-N-[2-(3-methylisoxazol-5-yl)phenyl]benzamide] | 7500
15 | Cc1coc(-c2cc(C(=O)Nc3cnc(C)nc3-c3ccccc3)ccc2C(F)(F)F)n1 [Example 29, 3-(4-methyl-1,3-oxazol-2-yl)-N-(2-methyl-4-phenylpyrimidin-5-yl)-4-(trifluoromethyl)benzamide] | 4
16 | Cc1ncc(NC(=O)c2ccc(C(F)(F)F)c(-n3nccn3)c2)c(-c2ccccc2)n1 [Example 16, N-(2-methyl-4-phenylpyrimidin-5-yl)-3-(2H-1,2,3-triazol-2-yl)-4-(trifluoromethyl)benzamide] | 66
17 | Cc1nc(C)c(NC(=O)c2ccc(C(F)(F)F)c(-c3ccn(C)n3)c2)c(-c2ccccc2)n1 [Example 26, N-(2,4-dimethyl-6-phenylpyrimidin-5-yl)-3-(1-methyl-1H-pyrazol-3-yl)-4-(trifluoromethyl)benzamide] | 210
18 | Cc1cc(-c2ccccc2NC(=O)c2cccc(-c3nccs3)c2)n[nH]1 [Example 7, N-[2-(5-methyl-1H-pyrazol-3-yl)phenyl]-3-(1,3-thiazol-2-yl)benzamide] | 4000
19 | Cn1ccc(-c2cc(C(=O)Nc3cc4c(nc3-c3ccccc3)CCN(C(N)=O)C4)c(F)cc2C(F)(F)F)n1 [Example 154, 3-(2-fluoro-5-(1-methyl-1H-pyrazol-3-yl)-4-(trifluoromethyl)benzamido)-2-phenyl-7,8-dihydro-1,6-naphthyridine-6(5H)-carboxamide] | 0.76
20 | Cn1ccc(-c2cc(C(=O)Nc3nccnc3-c3ccccc3)ccc2C(F)(F)F)n1 [Example 25, 3-(1-methyl-1H-pyrazol-3-yl)-N-(3-phenylpyrazin-2-yl)-4-(trifluoromethyl)benzamide] | 83
21 | NC(=O)c1cnc(-c2cnc(-c3ccccc3)c(NC(=O)c3cc(-c4ncccn4)c(C(F)(F)F)cc3F)c2)nc1 [Example 169, 2-(5-(2-fluoro-5-(pyrimidin-2-yl)-4-(trifluoromethyl)benzamido)-6-phenylpyridin-3-yl)pyrimidine-5-carboxamide] | 0.59
22 | Cn1ccc(-c2cc(C(=O)Nc3ncc(CNC(=O)CO)cc3-c3ccccc3)c(F)cc2C(F)(F)F)n1 [Example 69, 2-fluoro-N-(5-((2-hydroxyacetamido)methyl)-3-phenylpyridin-2-yl)-5-(1-methyl-1H-pyrazol-3-yl)-4-(trifluoromethyl)benzamide] | 18

The next lines start with the values.

Row | IC50 [nM] | Structure (SMILES)
23 | 14 | NC(=O)Cc1ncc(NC(=O)c2cc(-c3ncccn3)c(C(F)(F)F)cc2F)c(-c2ccccc2)n1 [Example 125, N-(2-(2-amino-2-oxoethyl)-4-phenylpyrimidin-5-yl)-2-fluoro-5-(pyrimidin-2-yl)-4-(trifluoromethyl)benzamide]
24 | 0.14 | Cn1ccc(-c2cc(C(=O)Nc3cnc(CN4CCOC4=O)nc3-c3ccccc3)c(F)cc2C(F)(F)F)n1 (single isomer, unassigned) [Example 218]
25 | 1.5 | Cn1ccc(-c2cc(C(=O)Nc3cnc(CC(=O)NCCO)nc3-c3ccccc3)c(F)cc2C(F)(F)F)n1 [Example 108, 2-fluoro-N-(2-(2-((2-hydroxyethyl)amino)-2-oxoethyl)-4-phenylpyrimidin-5-yl)-5-(1-methyl-1H-pyrazol-3-yl)-4-(trifluoromethyl)benzamide]
26 | 8.7 | Cn1ccc(-c2cc(C(=O)Nc3ncc(CC(N)=O)nc3-c3ccccc3)c(F)cc2C(F)(F)F)n1 [Example 120, N-(5-(2-amino-2-oxoethyl)-3-phenylpyrazin-2-yl)-2-fluoro-5-(1-methyl-1H-pyrazol-3-yl)-4-(trifluoromethyl)benzamide]
27 | 8.4 | NC(=O)Cc1ncc(NC(=O)c2cc(-c3ccccn3)c(C(F)(F)F)cc2F)c(-c2ccccc2)n1 [Example 123, N-(2-(2-amino-2-oxoethyl)-4-phenylpyrimidin-5-yl)-2-fluoro-5-(pyridin-2-yl)-4-(trifluoromethyl)benzamide]
28 | 1.6 | Cn1ccc(-c2cc(C(=O)Nc3cnc(CNC(=O)CO)nc3-c3ccccc3)c(F)cc2C(F)(F)F)n1 [Example 52, 2-fluoro-N-(2-((2-hydroxyacetamido)methyl)-4-phenylpyrimidin-5-yl)-5-(1-methyl-1H-pyrazol-3-yl)-4-(trifluoromethyl)benzamide]
29 | 70 | O=C(Nc1cnc(CO)nc1-c1ccccc1)c1ccc(C(F)(F)F)c(-c2ncccn2)c1 [Example 39, N-(2-(Hydroxymethyl)-4-phenylpyrimidin-5-yl)-3-(pyrimidin-2-yl)-4-(trifluoromethyl)benzamide]
30 | 2.2 | O=C(NCc1cccnc1)c1cnc(-c2ccccc2)c(NC(=O)c2cc(-c3ncccn3)c(C(F)(F)F)cc2F)c1 [Example 92, 5-(2-fluoro-5-(pyrimidin-2-yl)-4-(trifluoromethyl)benzamido)-6-phenyl-N-(pyridin-3-ylmethyl)nicotinamide]
31 | 0.4 | Cn1ccc(-c2cc(C(=O)Nc3cnc(CNC(=O)Cn4cncn4)nc3-c3ccccc3)c(F)cc2C(F)(F)F)n1 [Example 68]
32 | 3.8 | Cn1ccc(-c2cc(C(=O)Nc3cnc(C(O)C(N)=O)nc3-c3ccccc3)c(F)cc2C(F)(F)F)n1 (stereo not shown) [Example 118, N-(2-(2-amino-1-hydroxy-2-oxoethyl)-4-phenylpyrimidin-5-yl)-2-fluoro-5-(1-methyl-1H-pyrazol-3-yl)-4-(trifluoromethyl)benzamide]
33 | 0.25 | Cn1ccc(-c2cc(C(=O)Nc3cnc(CN4C(=O)COC4=O)nc3-c3ccccc3)c(F)cc2C(F)(F)F)n1 [Example 97, N-(2-((2,4-dioxooxazolidin-3-yl)methyl)-4-phenylpyrimidin-5-yl)-2-fluoro-5-(1-methyl-1H-pyrazol-3-yl)-4-(trifluoromethyl)benzamide]
34 | 12.4 | NC(=O)c1ncc(-c2cnc(-c3ccccc3)c(NC(=O)c3cc(-c4ncccn4)c(C(F)(F)F)cc3F)c2)cn1 [Example 175, 5-(5-(2-fluoro-5-(pyrimidin-2-yl)-4-(trifluoromethyl)benzamido)-6-phenylpyridin-3-yl)pyrimidine-2-carboxamide]
